Read-outs that look alike come from different tables or passages of the source.
How the values were obtained:
PfATP4 Cpd 3 = assay: [3H]-hypoxanthine incorporation assay, PfATP4 Cpd 3 resistant; type: cell-based; details: Plasmodium falciparum
Experimental: (§1) Supplementary Table 3: Compound 9 and 12 retain their activity against Pf strains harbouring mutations to novel antimalarial agents in clinical development. Compound 9 and 12 were tested for their antiplasmodial activity against a panel of Pf strains known to harbour mutations conferring resistance to novel agents under clinical development. Parasite growth inhibition is measured using the [3H]-hypoxanthine incorporation assay. IC50s are established for each strain (n ≥2) and compared to the IC50 of Dd2 (standard pan-resistant […]

Dd2-6R F2 B5 = assay: SYBR green growth assay, Dd2-6R F2 B5
Experimental: Assays were carried out in 384-well format with three technical replicates within an assay day and biological replicates carried out on three different assay days to assign a final EC50.
The drug was then washed off and the parasites were allowed to recover in normal growth media.

[1] = tested on: Pf male and female gametes; assay: Pf male and female dual gamete assay; details: Plasmodium falciparum, read-out: inhibition in Pf male and female dual gamete assay
Dd2 = assay: [3H]-hypoxanthine incorporation assay, Dd2; type: cell-based, Plasmodium falciparum; details: Plasmodium falciparum, DD2
Experimental: 9 and 12 were tested for their antiplasmodial activity against a panel of Pf strains known to harbour mutations conferring resistance to novel agents under clinical development. Parasite growth inhibition is measured using the [3H]-hypoxanthine incorporation assay. IC50s are established for each strain (n ≥2) and compared to the IC50 of Dd2 (standard pan-resistant

[2] = Plasma protein binding, mouse
[3] = Rat blood PK, IV and oral; type: in vivo; details: for Vd / half-life / clearance / MRT / bioavailability / AUC(0-inf) / AUC(0-t) / Cmax: rat; for bioavailability / AUC(0-inf) / AUC(0-t) / Cmax: 10 mg/kg
Experimental: Blood samples were collected at 0.083, 0.25, 0.5, 1, 2, 4, 8, 23, 32, 48, 55 and 72 hours after an IV dose of 2 mg/kg or an oral dose of 10 mg/kg. Oral administration was done using oral gavage at a maximum dose volume of 10 mL/kg. Solution formulation containing 10% NMP, 20% DMA in dextrose / normal saline was used for IV administration and a suspension in 0.5% w/v HPMC with 0.1% v/v Tween 80 was used for oral administration. 25 µl of blood samples were mixed with 100 µL of Milli-Q water and vortexed for 5 minutes in the plate shaker at a speed of 900 rpm to ensure complete hemolysis. Proteins were precipitated by adding 125 µL of cold acetonotrile containing internal standard. After extraction on a plate shaker for 10 minutes at 900 rpm, the plate was centrifuged at 4000 rpm for 20 minutes. The supernatant (180 µL) was transferred to another plate and 2.5 µL of Zinc sulphate (200 mM) was added to separate the heme fraction. This mixture was centrifuged and 10 µL of the supernatant was analyzed by LC-MS/MS. […]

Dd2 PI4K Cpd 1 = assay: [3H]-hypoxanthine incorporation assay, Dd2 PI4K Cpd 1 resistant; type: cell-based; details: Plasmodium falciparum
Experimental: as §1

Cpd 4 Unpublished Target = assay: [3H]-hypoxanthine incorporation assay, Cpd 4 Unpublished Target resistant; type: cell-based; details: Plasmodium falciparum
Experimental: as §1

[4] = Acute anaesthetised guinea pig CVS model, compound 2; type: in vivo
Experimental: Protein binding (human free)
Guinea Pig Study: Anaesthetised guinea pigs (n=2) were treated with compound 2 at 5 mg/kg followed by 15 mg/kg (AstraZeneca, Alderley Park, UK) using methodology based on that used to assess compound 12 at Biotrial, France. Haemodynamic and electrocardiography […]
achieved with compound 2 in an early mouse model once exposures reached approximately 9 μM Cmax (total). Consequently, compound 2 was classified as having no therapeutic window preclinically in this model. […]

[5] = Wistar, whole blood, po, Oral 10 mg kg-1, Mean
[6] = Wistar, whole blood, po, Oral 10 mg kg-1, Rat 1
[7] = Wistar, whole blood, po, Oral 10 mg kg-1, Rat 2
[8] = Wistar, whole blood, po, Oral 10 mg kg-1, Rat 3

Cc1nc(Nc2ncc(N3CCN(C)[C@H](C)C3)c(Nc3cc(C)n(C)n3)n2)cc(C2CC2)c1F [compound 12, (R)-N2-(4-cyclopropyl-5-fluoro-6-methylpyridin-2-yl)-N4-(1,5-dimethyl-1H-pyrazol-3-yl)-5-(3,4-dimethylpiperazin-1-yl)pyrimidine-2,4-diamine]
IC50 (PfATP4 Cpd 3): 10 nM | IC50 (Dd2-6R F2 B5; Plasmodium falciparum, DD2): 81 ± 17.9 nM | increase in IC50 compared with the parental Dd2 line (Dd2-6R F2 B5; compound 6-resistant Dd2-6R clones (five clones)): 3-6 fold | inhibition at 1 µM [1]: 16.5 ± 6.3% | IC50 (Dd2): 3.5 nM | fraction unbound ([2]; Plasma protein binding (% free)): 0.0055 | fraction unbound ([2]; Plasma protein binding, Plasma fu, fraction unbound): 0.005 | Vd ([3]; Wistar (rat), Beagle (dog), whole blood (rat), plasma (dog), intravenous, 2 mg/kg, rat and dog, read-out: volume of distribution (Vss)): 10 to 20 L/kg | half-life ([3]; Wistar (rat), Beagle (dog), whole blood (rat), plasma (dog), iv, 2 mg/kg, intravenous PK, rat and dog, read-out: half-life): 11 to 13 h | half-life ([3]; Wistar (rat), Beagle (dog), whole blood (rat), plasma (dog), po, oral PK study, rat and dog, read-out: half-life): 14 to 16 h | clearance ([3]; Wistar, blood, iv, 2 mg/kg, Rat, read-out: Observed blood CL): 5 to 13 mL/min/kg | MRT ([3]; Wistar, whole blood, iv, 2 mg/kg, IV 2 mg kg-1, Mean): 15.7 h | clearance ([3]; Wistar, whole blood, iv, 2 mg/kg, IV 2 mg kg-1, Mean, read-out: CL): 9.2 mL/min/kg | Vd ([3]; Wistar, whole blood, iv, 2 mg/kg, IV 2 mg kg-1, Mean, read-out: Vss): 7.7 L/kg | half-life ([3]; Wistar, whole blood, iv, 2 mg/kg, IV 2 mg kg-1, Mean, read-out: t½ (converted)): 15.2 h | MRT ([3]; Wistar, whole blood, iv, 2 mg/kg, IV 2 mg kg-1, Rat 1): 11.8 h | clearance ([3]; Wistar, whole blood, iv, 2 mg/kg, IV 2 mg kg-1, Rat 1, read-out: CL): 13.1 mL/min/kg | Vd ([3]; Wistar, whole blood, iv, 2 mg/kg, IV 2 mg kg-1, Rat 1, read-out: Vss): 9.3 L/kg | half-life ([3]; Wistar, whole blood, iv, 2 mg/kg, IV 2 mg kg-1, Rat 1, read-out: t½ (converted)): 13.5 h | MRT ([3]; Wistar, whole blood, iv, 2 mg/kg, IV 2 mg kg-1, Rat 2): 22.6 h | clearance ([3]; Wistar, whole blood, iv, 2 mg/kg, IV 2 mg kg-1, Rat 2, read-out: CL): 4.8 mL/min/kg | Vd ([3]; Wistar, whole blood, iv, 2 mg/kg, IV 2 mg kg-1, Rat 2, read-out: Vss): 6.6 L/kg | half-life ([3]; Wistar, whole blood, iv, 2 mg/kg, IV 2 mg kg-1, Rat 2, read-out: t½ (converted)): 19.2 h | MRT ([3]; Wistar, whole blood, iv, 2 mg/kg, IV 2 mg kg-1, Rat 3): 12.6 h | clearance ([3]; Wistar, whole blood, iv, 2 mg/kg, IV 2 mg kg-1, Rat 3, read-out: CL): 9.6 mL/min/kg | Vd ([3]; Wistar, whole blood, iv, 2 mg/kg, IV 2 mg kg-1, Rat 3, read-out: Vss): 7.2 L/kg | half-life ([3]; Wistar, whole blood, iv, 2 mg/kg, IV 2 mg kg-1, Rat 3, read-out: t½ (converted)): 13 h | bioavailability ([3]; Wistar, whole blood, oral, read-out: Rat F (bioavailability)): 80% | AUC(0-inf) [3, 5]: 35.8 µM·h | AUC(0-t) [3, 5]: 34.7 µM·h | Cmax [3, 5]: 2000 nM | bioavailability ([3]; Wistar, whole blood, po, Oral 10 mg kg-1, Mean, read-out: F): 90% | AUC(0-inf) [3, 6]: 33.1 µM·h | AUC(0-t) [3, 6]: 31.8 µM·h | Cmax [3, 6]: 1710 nM | bioavailability ([3]; Wistar, whole blood, po, Oral 10 mg kg-1, Rat 1, read-out: F): 121% | AUC(0-inf) [3, 7]: 38.4 µM·h | AUC(0-t) [3, 7]: 37.2 µM·h | Cmax [3, 7]: 2210 nM | bioavailability ([3]; Wistar, whole blood, po, Oral 10 mg kg-1, Rat 2, read-out: F): 52% | AUC(0-inf) [3, 8]: 36 µM·h | AUC(0-t) [3, 8]: 35.1 µM·h | Cmax [3, 8]: 1990 nM | bioavailability ([3]; Wistar, whole blood, po, Oral 10 mg kg-1, Rat 3, read-out: F): 96% | Tmax ([3]; Wistar, whole blood, Oral 10 mg kg-1, Rat 1): 4 h | CL ([3]; rat and dog): < 35 % liver blood flow | IC50 (Dd2 PI4K Cpd 1): 7.1 nM | IC50 (Cpd 4 Unpublished Target): 8.2 nM

Cc1cc(Nc2ncc(N3CCN(C)CC3)c(N3CCCC3)n2)ccn1 [compound 2]
A - Plasma Cmax Total ([4]; 5 mg/kg i.v.): 4530 nM | Safety Margin (A / B) ([4]; 5 mg/kg i.v.): None | Summary of clinical signs and effects ([4]; 5 mg/kg i.v.): Haemodynamic Effects | A - Plasma Cmax Total ([4]; 15 mg/kg i.v.): 20420 nM | Safety Margin (A / B) ([4]; 15 mg/kg i.v.): None | Summary of clinical signs and effects ([4]; 15 mg/kg i.v.): Haemodynamic & ECG Effects

From paper PMC4389225, “Triaminopyrimidine is a fast-killing and long-acting antimalarial clinical candidate” (Nature Communications, 2015)
